Source: patent US11065231B2, “Compounds and methods for the targeted degradation of interleukin-1 receptor- associated kinase 4 polypeptides” (Arvinas Operations, Inc., priority 2017, dated 2021)

What was measured:
IRAK4 [1] = target: T1, IRAK4 (Homo sapiens (Human), UniProt Q9NWZ3); assay: Biochemical Z'-Lyte FRET assay for IRAK4 kinase inhibition; conditions: 2 nM enzyme, 1 mM ATP, 2 μM substrate
Protocol: Biochemical Assay for IRAK4 Kinase Inhibition.
A Z′-Lyte assay based on a fluorescence resonance energy transfer (FRET) readout was developed for measuring IRAK4-dependent phosphorylation of a FRET-peptide substrate as described by Thermo Fisher Scientific (Grand Island, N.Y.). At a starting concentration of 1.5 mM, the identified compounds were serially diluted with 100% dimethyl sulfoxide (DMSO) in 3-fold increments, into Greiner bio-one 96-well plates (cat. #: 650201, Greiner bio-one, Monroe, N.C.). Compounds were then transferred to intermediate Greiner bio-one 96-well plates and diluted 10-fold with Kinase assay buffer (25 mM HEPES, pH 7.5, 10 mM MgCl2, 10 mM MnCl2, 1 mM EGTA, and 0.01% Brij-35, 2 mM DTT). Three μL of the serially diluted compounds were then transferred in duplicate to low-volume 384-well black proxiplates (cat. #: 6008269; Perkin Elmer, Akron, Ohio), to give duplicate twelve-point concentration curves. Six μl of a 2.5× solution of IRAK4 enzyme (cat #: 40064, BPS Bioscience, San Diego, Calif.) in kinase buffer was added to each well, followed by a 10 minutes pre-incubation step. Reactions were initiated by adding 6 μl of a 2.5× substrate mix of ATP and Z′-Lyte Ser/Thr 7 peptide (cat. #: PV3180, Thermo Fisher Scientific, Grand Island, N.Y.) and proceeded at room temperature for 1 hour. The final concentration of key reagents in the 15 uL kinase reactions were 2 μM substrate, 2 nM enzyme, and 1 mM ATP, with dose responses starting at 30 μM compound. At the end of the kinase reactions, 5 μl of developing solution (as instructed in for cat. #: PV3180, Thermo Fisher Scientific, Grand Island, N.Y.) was added to each well and incubated at room temperature for 1 hour. All wells were read on an Envision 2105 Multilabel fluorescence plate reader (Perkin Elmer, Waltham, Mass.) at 400 nm excitation and 460 nm/530 nm emission. Plus and minus 100% inhibition controls were used to calculate percent inhibition and IC50 curves were generated using Graphpad Prism (La Jolla, Calif.).

IRAK4 [2] = target: T1, IRAK4; assay: Western blot assay for assessing degradation of IRAK4 in MCF7 cells; type: cell-based; conditions: Table 5, IRAK4 degradation, 24 hour incubation; for DC50: read-out: IRAK4 DC50; for Dmax: read-out: IRAK4 Dmax (%)
Protocol: Western Blot Assay for Assessing Degradation of IRAK4.
MCF7 cells, purchased from ATCC (Manassas, Va.), were used at a passage range of 2-19. Cells were seeded at 50% confluency in 96-well plates at 180 μl/well in cell media (Dulbecco's Modified Eagle medium/nutrient F-12 Ham-10% Fetal Bovine Serum) and incubated overnight. The next morning, compounds were serially diluted and added (20 μl into 180 μl media) at a final DMSO concentration of 0.1%. Cells were rinsed with cell media and replaced with compounds in media, followed by incubation overnight. After a 24 hour incubation with compound, cell were harvested (90-100% confluent at harvest). Cells were then washed once with 100 μl of Dulbecco's hosphate-buffered saline and then lysed with 40 μl of lysis buffer (1×RIPA+HALT protease inhibitor+HALT phosphatase inhibitor) on ice for 10 minutes. Lysates were then cleaned by filtration in 1.2 µm filter plates followed by western blotting. For each sample, 30 μl of lysate were added to 10 μl of 4×LDS sample buffer, then denatured at 95° C. for 5 minutes in the thermal cycler and placed on ice. Fifteen μL of each sample were then loaded on 4-15% Tris/Glycine gels and run for 25 minutes at 250 (constant) volts in 1× Tris/Glycine buffer. Protein was transferred from gels to nitrocellulose using a BioRad Turbo dry-transfer unit with the Turbo/midi default program. All blots were rinsed with ddH2O and blocked for 1 hour at room temperature in 5% bovine serum albumin (BSA) in tris-buffered saline-Tween 20 (TBS-T) (0.1%) on rocker. Blots were exposed to primary antibody in 5% BSA in TBS-T (0.1%) overnight at 4° C. on rocker. Primary antibodies, diluted 1:1000 in […], were as follows: anti-IRAK4 (cat. #: ab119942, Abcam, Cambridge, Mass.), anti-IRAK1 (cat. #: CST 4504S, Cell Signaling Technology, Danvers, Mass.), and anti-Beta-actin (Cat. #: ab8227, Abcam, Cambridge, Mass.). Blots were then washed with TBS-T (0.1%) three times for 5 minutes on a rocker at room temperature. Secondary antibody (1:18,000 anti-rabbit-HRP and/or anti-mouse-HRP in 5% BSA in TBST (0.1%) was then added, and blots incubated at room temperature rocker for 1 hour. Blots were washed 3 times in TBS-T (0.1%) for 5 minutes at room temperature on the rocker. Signal was developed with Femto Max substrate for 5 minutes and blots read on a ChemiDoc. Percent degradation was assessed by comparing IRAK4 signal in compound vs. DMSO treated lysates.

T1 sequence (Q9NWZ3 whole entry): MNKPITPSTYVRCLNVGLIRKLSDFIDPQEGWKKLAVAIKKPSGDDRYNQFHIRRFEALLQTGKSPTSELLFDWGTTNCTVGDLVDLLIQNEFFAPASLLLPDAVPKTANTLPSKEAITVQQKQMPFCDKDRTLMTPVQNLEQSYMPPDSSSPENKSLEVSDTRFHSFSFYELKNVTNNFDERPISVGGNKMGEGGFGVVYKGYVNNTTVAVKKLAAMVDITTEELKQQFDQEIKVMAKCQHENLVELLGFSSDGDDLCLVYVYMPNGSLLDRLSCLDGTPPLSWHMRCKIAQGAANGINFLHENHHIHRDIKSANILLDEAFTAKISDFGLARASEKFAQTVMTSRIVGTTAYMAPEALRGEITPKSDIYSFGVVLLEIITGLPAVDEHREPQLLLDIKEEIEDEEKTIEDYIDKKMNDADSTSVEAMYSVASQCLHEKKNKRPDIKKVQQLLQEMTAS

Row | Compound | IC50 (IRAK4 [1]) [nM] | DC50 (IRAK4 [2]) [nM] | Dmax (IRAK4 [2]) [%]
1 | Cc1ncsc1-c1ccc(CNC(=O)[C@@H]2C[C@@H](O)CN2C(=O)[C@@H](NC(=O)COCCN2CCN(Cc3ccc4c(c3)nc(NC(=O)c3cccc(C(F)(F)F)c3)n4C3CCC(CO)CC3)CC2)C(C)(C)C)cc1 (mixture of isomers) [compound 11, (2S,4R)-4-hydroxy-1-((S)-2-(2-(2-(4-((1-((1SR,4SR)-4-(hydroxymethyl)cyclohexyl)-2-(3-(trifluoromethyl)benzamido)-1H-benzo[d]imidazol-5-yl)methyl)piperazin-1-yl)ethoxy)acetamido)-3,3-dimethylbutanoyl)-N-(4-(4-methylthiazol-5-yl)benzyl)pyrrolidine-2-carboxamide] | 300 to 1000 | ≥ 1000 | > 70
2 | Cc1ncsc1-c1ccc(CNC(=O)[C@@H]2C[C@@H](O)CN2C(=O)[C@@H](NC(=O)COCCOCCN2CCN(Cc3ccc4c(c3)nc(NC(=O)c3cccc(C(F)(F)F)c3)n4[C@H]3CC[C@@H](CO)CC3)CC2)C(C)(C)C)cc1 (racemic) [compound 12, (2S,4R)-4-hydroxy-1-((S)-2-(2-(2-(2-(4-((1-((1SR,4SR)-4-(hydroxymethyl)cyclohexyl)-2-(3-(trifluoromethyl)benzamido)-1H-benzo[d]imidazol-5-yl)methyl)piperazin-1-yl)ethoxy)ethoxy)acetamido)-3,3-dimethylbutanoyl)-N-(4-(4-methylthiazol-5-yl)benzyl)pyrrolidine-2-carboxamide] | 30 to 100 | ≥ 1000 | 
3 | Cc1ncsc1-c1ccc(CNC(=O)[C@@H]2C[C@@H](O)CN2C(=O)[C@@H](NC(=O)COCCOCCOCCN2CCN(Cc3ccc4c(c3)nc(NC(=O)c3cccc(C(F)(F)F)c3)n4C3CCC(CO)CC3)CC2)C(C)(C)C)cc1 (mixture of isomers) [compound 13, (2S,4R)-1-((S)-2-(tert-butyl)-14-(4-((1-((1SR,4SR)-4-(hydroxymethyl)cyclohexyl)-2-(3-(trifluoromethyl)benzamido)-1H-benzo[d]imidazol-5-yl)methyl)piperazin-1-yl)-4-oxo-6,9,12-trioxa-3-azatetradecanoyl)-4-hydroxy-N-(4-(4-methylthiazol-5-yl)benzyl)pyrrolidine-2-carboxamide] | 300 to 1000 | ≥ 1000 | 
4 | N#Cc1ccc2ncnc(N[C@H]3CC[C@@H](N4CCN(S(=O)(=O)CCOCCOCCOc5ccc6c(c5)C(=O)N(C5CCC(=O)NC5=O)C6=O)CC4)CC3)c2c1 (some centres unmarked) [compound 37] | ≥ 1000 |  | 
5 | N#Cc1ccc2ncnc(N[C@H]3CC[C@H](N4CCN(S(=O)(=O)CCOCCOCCOCCOc5ccc6c(c5)C(=O)N(C5CCC(=O)NC5=O)C6=O)CC4)CC3)c2c1 (some centres unmarked) [compound 38] | ≥ 1000 |  | 
6 | N#Cc1ccc2ncnc(N[C@H]3CC[C@@H](N4CCN(S(=O)(=O)CCOCCOCCOCCOc5ccc6c(c5)C(=O)N(C5CCC(=O)NC5=O)C6=O)CC4)CC3)c2c1 (some centres unmarked) [compound 39] | ≥ 1000 |  | 
7 | O=C1CCC(N2C(=O)c3ccc(OCCOC[C@H]4CC[C@@H](n5c(NC(=O)c6cccc(C(F)(F)F)c6)nc6cc(F)ccc65)CC4)cc3C2=O)C(=O)N1 (some centres unmarked) [compound 45] | ≥ 1000 |  | 
8 | COc1cc2nn(C3CCN(CCOCCOCCNc4cccc5c4C(=O)N(C4CCC(=O)NC4=O)C5=O)CC3)cc2cc1NC(=O)c1cccc(C(F)(F)F)n1 (centres unmarked) [compound 62, N-(2-(1-(2-(2-(2-((2-(2,6-dioxopiperidin-3-yl)-1,3-dioxoisoindolin-4-yl)amino)ethoxy)ethoxy)ethyl)piperadin-4-yl)-6-methoxy-2H-indazol-5-yl)-6-(trifluoromethyl)picolinamide] | < 30 |  | 
9 | COc1cc2nn(C3CCN(CCOCCOCCOCCNc4cccc5c4C(=O)N(C4CCC(=O)NC4=O)C5=O)CC3)cc2cc1NC(=O)c1cccc(C(F)(F)F)n1 (centres unmarked) [compound 64, N-(2-(1-(2-(2-(2-(2-((2-(2,6-dioxopiperidin-3-yl)-1,3-dioxoisoindolin-4-yl)amino)ethoxy)ethoxy)ethoxy)ethyl)piperadin-4-yl)-6-methoxy-2H-indazol-5-yl)-6-(trifluoromethyl)picolinamide] | < 30 |  | 

The remaining lines, values ahead:

Row | IC50 (IRAK4 [1]) [nM] | DC50 (IRAK4 [2]) [nM] | Dmax (IRAK4 [2]) [%] | Compound
10 |  |  | 30 to 50 | O=C1CCC(N2C(=O)c3ccc(OCCN4CCN(Cc5ccc6c(c5)nc(NC(=O)c5cccc(C(F)(F)F)c5)n6C5CCC(CO)CC5)CC4)cc3C2=O)C(=O)N1 (centres unmarked) [compound 1, N-(5-((4-(2-((2-(2,6-dioxopiperidin-3-yl)-1,3-dioxoisoindolin-5-yl)oxy)ethyl)piperazin-1-yl)methyl)-1-((1s,4s)-4-(hydroxymethyl)cyclohexyl)-1H-benzo[d]imidazol-2-yl)-3-(trifluoromethyl)benzamide]
11 |  |  | > 70 | O=C1CCC(N2C(=O)c3ccc(OCCN4CCC(CN5CCN(Cc6ccc7c(c6)nc(NC(=O)c6cccc(C(F)(F)F)c6)n7C6CCC(CO)CC6)CC5)CC4)cc3C2=O)C(=O)N1 (centres unmarked) [compound 10]
12 |  | ≥ 1000 |  | O=C1CCC(N2C(=O)c3ccc(OCCOCCOCCOCC4CCC(n5c(NC(=O)c6cccc(C(F)(F)F)c6)nc6cc(CN7CCCCC7)ccc65)CC4)cc3C2=O)C(=O)N1 (centres unmarked) [compound 43, N-(1-((1s,4s)-4-((2-(2-(2-((2-(2,6-dioxopiperidin-3-yl)-1,3-dioxoisoindolin-5-yl)oxy)ethoxy)ethoxy)ethoxy)methyl)cyclohexyl)-5-(piperidin-1-ylmethyl)-1H-benzo[d]imidazol-2-yl)-3-(trifluoromethyl)benzamide]
13 | ≥ 1000 |  |  | COc1cccc(-n2c(NC(=O)c3cccc(C(F)(F)F)c3)nc3cc(CN4CCN(CCOCCOc5ccc6c(c5)C(=O)N(C5CCC(=O)NC5=O)C6=O)CC4)ccc32)c1 (centres unmarked) [compound 57, N-(5-((4-(2-(2-((2-(2,6-dioxopiperidin-3-yl)-1,3-dioxoisoindolin-5-yl)oxy)ethoxy)ethyl)piperazin-1-yl)methyl)-1-(3-methoxyphenyl)-1H-benzo[d]imidazol-2-yl)-3-(trifluoromethyl)benzamide]
14 |  |  | 50 to 70 | O=C1CCC(N2C(=O)c3cccc(NCCOCCOCCN4CCN(Cc5ccc6c(c5)nc(NC(=O)c5cccc(C(F)(F)F)c5)n6C5CCC(CO)CC5)CC4)c3C2=O)C(=O)N1 (centres unmarked) [compound 66, N-(5-((4-(2-(2-(2-((2-(2,6-dioxopiperidin-3-yl)-1,3-dioxoisoindolin-4-yl)amino)ethoxy)ethoxy)ethyl)piperazin-1-yl)methyl)-1-((1s,4s)-4-(hydroxymethyl)cyclohexyl)-1H-benzo[d]imidazol-2-yl)-3-(trifluoromethyl)benzamide]
15 |  | 30 to 100 | > 70 | O=C1CCC(N2C(=O)c3ccc(OC4CCC(CN5CCN(Cc6ccc7c(c6)nc(NC(=O)c6cccc(C(F)(F)F)c6)n7C6CCC(CO)CC6)CC5)CC4)cc3C2=O)C(=O)N1 (centres unmarked) [compound 67, N-(5-((4-((4-((2-(2,6-dioxopiperidin-3-yl)-1,3-dioxoisoindolin-5-yl)oxy)cycloethyl)methyl)piperazin-1-yl)methyl)-1-((1s,4s)-4-(hydroxymethyl)cyclohexyl)-1H-benzo[d]imidazol-2-yl)-3-(trifluoromethyl)benzamide]
